Laboratory results: PubChem BioAssay (NCI)
“And” between values parts separate entries of the source, which are not always exact repeats. Identical values can stand only once.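 These data come from cells grown in 96-well plates and exposed to compound for 48 hours at five concentrations. GI50 marks 50% less growth. TGI marks complete inhibition of growth.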

Key:
Test in all cases: NCI anticancer screen, dose series, 48 h
NCI-H23 lung = tested on: NCI-H23 lung
CCRF-CEM leukemia = tested on: CCRF-CEM leukemia
SF-268 CNS = tested on: SF-268 CNS
SK-MEL-2 melanoma = tested on: SK-MEL-2 melanoma
HL-60(TB) leukemia = tested on: HL-60(TB) leukemia
SK-MEL-5 melanoma = tested on: SK-MEL-5 melanoma
K-562 leukemia = tested on: K-562 leukemia
KM12 colon = tested on: KM12 colon
SF-295 CNS = tested on: SF-295 CNS
M14 melanoma = tested on: M14 melanoma
NCI-H522 lung = tested on: NCI-H522 lung
UACC-257 melanoma = tested on: UACC-257 melanoma
OVCAR-5 ovarian = tested on: OVCAR-5 ovarian
DMS 273 small cell lung = tested on: DMS 273 small cell lung
OVCAR-4 ovarian = tested on: OVCAR-4 ovarian
KM20L2 colon = tested on: KM20L2 colon
U251 CNS = tested on: U251 CNS
SW-620 colon = tested on: SW-620 colon
786-0 renal = tested on: 786-0 renal
NCI-H226 lung = tested on: NCI-H226 lung
TK-10 renal = tested on: TK-10 renal
HCC-2998 colon = tested on: HCC-2998 colon
SR leukemia = tested on: SR leukemia
SNB-19 CNS = tested on: SNB-19 CNS
LXFL 529 NSCLC = tested on: LXFL 529 NSCLC
DLD-1 colon = tested on: DLD-1 colon
HCT-15 colon = tested on: HCT-15 colon
CAKI-1 renal = tested on: CAKI-1 renal
HT29 colon = tested on: HT29 colon
SNB-75 CNS = tested on: SNB-75 CNS
DMS 114 small cell lung = tested on: DMS 114 small cell lung
OVCAR-3 ovarian = tested on: OVCAR-3 ovarian
COLO 205 colon = tested on: COLO 205 colon
OVCAR-8 ovarian = tested on: OVCAR-8 ovarian
UO-31 renal = tested on: UO-31 renal
HCT-116 colon = tested on: HCT-116 colon
MALME-3M melanoma = tested on: MALME-3M melanoma
NCI-H460 lung = tested on: NCI-H460 lung
IGROV1 ovarian = tested on: IGROV1 ovarian
UACC-62 melanoma = tested on: UACC-62 melanoma
SK-MEL-28 melanoma = tested on: SK-MEL-28 melanoma
ACHN renal = tested on: ACHN renal
HOP-92 NSCLC = tested on: HOP-92 NSCLC
RPMI-8226 leukemia = tested on: RPMI-8226 leukemia
MOLT-4 leukemia = tested on: MOLT-4 leukemia
XF 498 CNS = tested on: XF 498 CNS
M19-MEL melanoma = tested on: M19-MEL melanoma
SF-539 CNS = tested on: SF-539 CNS
A549 NSCLC = tested on: A549 NSCLC
HOP-62 NSCLC = tested on: HOP-62 NSCLC
SN12C renal = tested on: SN12C renal
SNB-78 CNS = tested on: SNB-78 CNS
SK-OV-3 ovarian = tested on: SK-OV-3 ovarian
EKVX NSCLC = tested on: EKVX NSCLC
A498 renal = tested on: A498 renal

For `CC[N+](CC)(CC)Cc1cc2ccccc2n1C(=O)OC`, the TGI (NCI-H23 lung) was greater than 100 µM, the TGI (CCRF-CEM leukemia) was greater than 100 µM and the TGI (SF-268 CNS) was greater than 100 µM. The TGI (SK-MEL-2 melanoma) was greater than 100 µM, the TGI (HL-60(TB) leukemia) was greater than 100 µM and the TGI (SK-MEL-5 melanoma) was greater than 100 µM. The TGI (K-562 leukemia) was greater than 100 µM, the TGI (KM12 colon) was greater than 100 µM and the TGI (SF-295 CNS) was greater than 100 µM. The TGI (M14 melanoma) was greater than 100 µM, the TGI (NCI-H522 lung) was greater than 100 µM and the TGI (UACC-257 melanoma) was greater than 100 µM. The TGI (OVCAR-5 ovarian) was greater than 100 µM, the TGI (DMS 273 small cell lung) was greater than 100 µM and the TGI (OVCAR-4 ovarian) was greater than 100 µM. The TGI (KM20L2 colon) was greater than 100 µM, the TGI (U251 CNS) was greater than 100 µM and the TGI (SW-620 colon) was greater than 100 µM. The TGI (786-0 renal) was greater than 100 µM, the TGI (NCI-H226 lung) was greater than 100 µM and the TGI (TK-10 renal) was greater than 100 µM. For the same compound, the TGI (HCC-2998 colon) was greater than 100 µM, the TGI (SR leukemia) was greater than 100 µM and the TGI (SNB-19 CNS) was greater than 100 µM. For the same compound, the TGI (LXFL 529 NSCLC) was greater than 100 µM, the TGI (DLD-1 colon) was greater than 100 µM and the TGI (HCT-15 colon) was greater than 100 µM. For the same compound, the TGI (CAKI-1 renal) was greater than 100 µM, the TGI (HT29 colon) was greater than 100 µM and the TGI (SNB-75 CNS) was greater than 100 µM. For the same compound, the TGI (DMS 114 small cell lung) was greater than 100 µM, the TGI (OVCAR-3 ovarian) was greater than 100 µM and the TGI (COLO 205 colon) was greater than 100 µM. The TGI (OVCAR-8 ovarian) was greater than 100 µM, the TGI (UO-31 renal) was greater than 100 µM and the TGI (HCT-116 colon) was greater than 100 µM. The TGI (MALME-3M melanoma) was greater than 100 µM, the TGI (NCI-H460 lung) was greater than 100 µM and the TGI (IGROV1 ovarian) was greater than 100 µM. The TGI (UACC-62 melanoma) was greater than 100 µM, the TGI (SK-MEL-28 melanoma) was greater than 100 µM and the TGI (ACHN renal) was greater than 100 µM. It also gave a TGI (HOP-92 NSCLC) greater than 100 µM, a TGI (RPMI-8226 leukemia) greater than 100 µM and a TGI (MOLT-4 leukemia) greater than 100 µM. For the same compound, the TGI (XF 498 CNS) was greater than 100 µM, the TGI (M19-MEL melanoma) was greater than 100 µM and the TGI (SF-539 CNS) was greater than 100 µM. For the same compound, the TGI (A549 NSCLC) was greater than 100 µM and the TGI (HOP-62 NSCLC) was greater than 100 µM.
`CCCCCC(=O)N[C@H]1CCc2cc(OC)c(OC)c(OC)c2-c2ccc(SC)c(=O)cc21` gave a TGI (CCRF-CEM leukemia) of 34.8 µM, a TGI (SF-268 CNS) of 24.1 µM and a TGI (SK-MEL-5 melanoma) of 0.0484 µM. It also gave a TGI (K-562 leukemia) of 11.2 µM, a TGI (UACC-257 melanoma) of 33.4 µM and a TGI (OVCAR-5 ovarian) greater than 100 µM. The TGI (OVCAR-4 ovarian) was greater than 100 µM, the TGI (KM20L2 colon) was 0.0354 µM and the TGI (SW-620 colon) was greater than 100 µM. It also gave a TGI (786-0 renal) of 11.6 µM, a TGI (TK-10 renal) of 32.9 µM and a TGI (HCC-2998 colon) of 0.0549 µM. The TGI (LXFL 529 NSCLC) was 17.3 µM, the TGI (DLD-1 colon) was greater than 100 µM and the TGI (HCT-15 colon) was 0.0646 µM. For the same compound, the TGI (CAKI-1 renal) was greater than 100 µM, the TGI (HT29 colon) was 0.0755 µM and 0.131 µM and the TGI (OVCAR-3 ovarian) was 0.0354 µM. For the same compound, the TGI (SN12C renal) was 19 µM, the TGI (COLO 205 colon) was 0.0285 µM and the TGI (SNB-78 CNS) was greater than 100 µM. The TGI (HCT-116 colon) was 0.0913 µM and 0.0136 µM, the TGI (SK-OV-3 ovarian) was 0.0811 µM and the TGI (EKVX NSCLC) was greater than 100 µM. For the same compound, the TGI (UACC-62 melanoma) was 29.3 µM, the GI50 (SK-MEL-28 melanoma) was 25.1 µM and the TGI (SK-MEL-28 melanoma) was greater than 100 µM. It also gave a TGI (ACHN renal) of 36 µM, a TGI (A498 renal) of 0.0449 µM and a TGI (HOP-92 NSCLC) of 1.17 µM. For the same compound, the TGI (MOLT-4 leukemia) was greater than 100 µM, the TGI (XF 498 CNS) was 6.04 µM and the TGI (M19-MEL melanoma) was 50.7 µM. The TGI (SF-539 CNS) was 0.0374 µM, the TGI (A549 NSCLC) was greater than 100 µM and the TGI (HOP-62 NSCLC) was 49.7 µM.
